From patent publication US8232273B2, “Heterocyclic compounds and methods of use” (Genentech, Inc., priority 2008, dated 2012) come the findings set out here.

Each structure is given as a SMILES string.

Sequence of Bcl-xL (GST-Bcl-xL) (Q07817 whole entry, species assumed): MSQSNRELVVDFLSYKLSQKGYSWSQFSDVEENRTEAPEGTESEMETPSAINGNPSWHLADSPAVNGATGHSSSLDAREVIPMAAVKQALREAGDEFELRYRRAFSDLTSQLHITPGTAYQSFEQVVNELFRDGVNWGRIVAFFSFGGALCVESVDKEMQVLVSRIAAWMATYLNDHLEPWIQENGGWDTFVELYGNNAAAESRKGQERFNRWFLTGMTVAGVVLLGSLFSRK

The first assay has as its target Bcl-xL (GST-Bcl-xL) (Homo sapiens, UniProt Q07817). The assay is described as follows: TR-FRET binding assay, competition with F-Bak for the Bcl-xL binding site. The note with it: values listed in the order of Table 1, read-out: TR-FRET assay results (Ki), Bcl-xL. Here is the method: The measurement of competition of compounds of the invention with F-Bak for a Bcl-2 family protein (Bcl-xL) binding site using a Time Resolved Fluorescence Resonance Energy Transfer (TR-FRET) binding assay:
Test compounds were serially diluted in DMSO starting at 50 μM (2× starting concentration; 10% DMSO) and 10 μt transferred into a 384-well plate.
The samples are then mixed on a shaker for 1 minute then incubated for an additional 2 hours at room temperature. For each assay plate, a probe/antibody and protein/antibody/probe mixture were included as a negative and a positive control, respectively. Fluorescence was measured on the Envision (Perkin Elmer) using a 340/35 nm excitation filter and 520/525 (F-Bak) and 495/510 nm (Tb-labeled anti-his antibody) emission filters. Dissociation constants (Ki) were determined using Wang's equation (see, Wang, Z. X. An exact mathematical expression for describing competitive binding of two different ligands to a protein molecule. FEBS Lett. 1995 360:111-114). The TR-FRET assay can be performed in the presence of varying concentrations of human serum (HS) or fetal bovine serum (FBS).
(Time-resolved FRET reads energy transfer from a long-lived donor to a nearby acceptor.)
On to `O=C(Nc1nc2ccccc2s1)c1cccc2c1CN(c1ccc(CCCCOc3ccccc3)c(C(=O)O)n1)CC2` [Compound 131, 6-(8-(benzo[d]thiazol-2-ylcarbamoyl)-3,4-dihydroisoquinolin-2(1H)-yl)-3-(4-phenoxybutyl)picolinic acid], for which the Ki (in general, the equilibrium dissociation constant of an inhibitor or competing ligand from its target) turned out to be 18.9 nM.
Take `O=C(Nc1nc2ccccc2s1)c1cccc2c1CN(c1nc(C(=O)O)c(CCOCc3ccccc3)s1)CC2` [Compound 134, 2-(8-(benzo[d]thiazol-2-ylcarbamoyl)-3,4-dihydroisoquinolin-2(1H)-yl)-5-(2-(benzyloxy)ethyl)thiazole-4-carboxylic acid]: the Ki is 0.6 nM.
Still for that read-out and setting: the value for `CN(C)CC#Cc1ccc(OCCCc2sc(N3CCc4cccc(C(=O)Nc5nc6ccccc6s5)c4C3)nc2C(=O)NS(C)(=O)=O)c(F)c1` [Compound 142, 2-(8-(benzo[d]thiazol-2-ylcarbamoyl)-3,4-dihydroisoquinolin-2(1H)-yl)-5-(3-(4-(3-(dimethylamino)prop-1-ynyl)-2-fluorophenoxy)propyl)-N-(methylsulfonyl) thiazole-4-carboxamide] was 0.088 nM; that for `CN(C)CC#Cc1ccc(OCCCc2sc(N3CCc4cccc(C(=O)Nc5nc6ccccc6s5)c4C3)nc2C(=O)NS(=O)(=O)C(F)F)c(F)c1` [Compound 147, 2-(8-(benzo[d]thiazol-2-ylcarbamoyl)-3,4-dihydroisoquinolin-2(1H)-yl)-N-(difluoromethylsulfonyl)-5-(3-(4-(3-(dimethylamino)prop-1-ynyl)-2-fluorophenoxy)propyl)thiazole-4-carboxamide] was greater than 660 nM; that for `O=C(Nc1nc2ccccc2s1)c1cccc2c1CN(c1nc(C(=O)O)c(CCCN3CCOCC3)s1)CC2` [Example 19, 2-(8-(benzo[d]thiazol-2-ylcarbamoyl)-3,4-dihydroisoquinolin-2(1H)-yl)-5-(3-morpholinopropyl)thiazole-4-carboxylic acid] was 9 nM.
In the case of `O=C(Nc1nc2ccccc2s1)c1cccc2c1CN(c1nc(C(=O)O)c(CCCOc3cccc(-n4ncc5cncnc54)c3)s1)CC2` [Example 33], the Ki turned out to be 0.3 nM.
For `N#Cc1c(-c2cccc(OCC#Cc3sc(N4CCc5cccc(C(=O)Nc6nc7ccccc7s6)c5C4)nc3C(=O)O)c2)n[nH]c1N` [Example 36, 5-(3-(3-(5-amino-4-cyano-1H-pyrazol-3-yl)phenoxy)prop-1-ynyl)-2-(8-(benzo[d]thiazol-2-ylcarbamoyl)-3,4-dihydroisoquinolin-2(1H)-yl)thiazole-4-carboxylic acid], the inhibitory constant (Ki) worked out at 5 nM.
Same read-out and setting: in the case of `N#Cc1c(-c2cccc(OCc3ccc(-c4sc(N5CCc6cccc(C(=O)Nc7nc8ccccc8s7)c6C5)nc4C(=O)O)cc3)c2)n[nH]c1N` [Example 37, 5-(4-((3-(5-amino-4-cyano-1H-pyrazol-3-yl)phenoxy)methyl)phenyl)-2-(8-(benzo[d]thiazol-2-ylcarbamoyl)-3,4-dihydroisoquinolin-2(1H)-yl)thiazole-4-carboxylic acid] it was 4 nM; in that of `N#Cc1c(-c2cccc(OCCCc3sc(N4CCc5cccc(C(=O)Nc6nc7ccccc7s6)c5C4)nc3C(=O)O)c2)n[nH]c1N` [Example 39, 5-(3-(3-(5-amino-4-cyano-1H-pyrazol-3-yl)phenoxy)propyl)-2-(8-(benzo[d]thiazol-2-ylcarbamoyl)-3,4-dihydroisoquinolin-2(1H)-yl)thiazole-4-carboxylic acid], 0.2 nM.
Same read-out and setting: the value for `N#Cc1c(-c2ccc(OCC#Cc3sc(N4CCc5cccc(C(=O)Nc6nc7ccccc7s6)c5C4)nc3C(=O)O)cc2)n[nH]c1N` [Example 40, 5-(3-(4-(5-amino-4-cyano-1H-pyrazol-3-yl)phenoxy)prop-1-ynyl)-2-(8-(benzo[d]thiazol-2-ylcarbamoyl)-3,4-dihydroisoquinolin-2(1H)-yl)thiazole-4-carboxylic acid] was 0.4 nM.
Consider `O=C(Nc1nc2ccccc2s1)c1cccc2c1CN(c1nc(C(=O)O)c(CCCCOc3ccc(-n4ncc5cncnc54)cc3)s1)CC2` [Example 43, 5-(4-(4-(1H-pyrazolo[3,4-d]pyrimidin-1-yl)phenoxy)butyl)-2-(8-(benzo[d]thiazol-2-ylcarbamoyl)-3,4-dihydroisoquinolin-2(1H)-yl)thiazole-4-carboxylic acid], for which the inhibitory constant (Ki) worked out at 5 nM.
With `CC(C)Nc1ncnc2c1cnn2-c1ccc(OCCCc2sc(N3CCc4cccc(C(=O)Nc5nc6ccccc6s5)c4C3)nc2C(=O)O)cc1` [Example 44, 2-(8-(benzo[d]thiazol-2-ylcarbamoyl)-3,4-dihydroisoquinolin-2(1H)-yl)-5-(3-(4-(4-(isopropylamino)-1H-pyrazolo[3,4-d]pyrimidin-1-yl)phenoxy)propyl)thiazole-4-carboxylic acid], the inhibition constant (Ki) worked out at 0.07 nM.
Still for that read-out and setting: in the case of `N#Cc1c(-c2cccc(OCc3sc(N4CCc5cccc(C(=O)Nc6nc7ccccc7s6)c5C4)nc3C(=O)O)c2)n[nH]c1N` [Example 46, 5-[3-(5-Amino-4-cyano-1H-pyrazol-3-yl)-phenoxymethyl]-2-[8-(benzothiazol-2-ylcarbamoyl)-3,4-dihydro-1H-isoquinolin-2-yl]-thiazole-4-carboxylic acid] it was 1 nM; in that of `N#Cc1c(-c2ccc(OCCCc3sc(N4CCc5cccc(C(=O)Nc6nc7ccccc7s6)c5C4)nc3C(=O)O)cc2)csc1N` [Example 47, 5-{3-[4-(5-Amino-4-cyano-thiophen-3-yl)-phenoxy]-propyl}-2-[8-(benzothiazol-2-ylcarbamoyl)-3,4-dihydro-1H-isoquinolin-2-yl]-thiazole-4-carboxylic acid], 0.1 nM.
In the case of `O=C(Nc1nc2ccccc2s1)c1cccc2c1CN(c1nc(C(=O)O)c(CCCOc3ccc(C4=CSC5=NCCN45)cc3)s1)CC2` [Example 53, 2-(8-(benzo[d]thiazol-2-ylcarbamoyl)-3,4-dihydroisoquinolin-2(1H)-yl)-5-(3-(4-(5,6-dihydroimidazo[2,1-b]thiazol-3-yl)phenoxy)propyl)thiazole-4-carboxylic acid], the Ki was found to be 0.05 nM.
As to `N#Cc1cccnc1-c1ccc(OCCCc2sc(N3CCc4cccc(C(=O)Nc5nc6ccccc6s5)c4C3)nc2C(=O)O)cc1` [Example 56, 2-[8-(Benzothiazol-2-ylcarbamoyl)-3,4-dihydro-1H-isoquinolin-2-yl]-5-{3-[4-(3-cyano-pyridin-2-yl)-phenoxy]-propyl}-thiazole-4-carboxylic acid], the inhibition constant (Ki) was 0.05 nM.
Same read-out and setting: in the case of `O=C(Nc1nc2ccccc2s1)c1cccc2c1CN(c1nc(C(=O)O)c(CCCOc3ccc(N4CCOCC4)cc3)s1)CC2` [Example 59, 2-[8-(Benzothiazol-2-ylcarbamoyl)-3,4-dihydro-1H-isoquinolin-2-yl]-5-[3-(4-morpholin-4-yl-phenoxy)-propyl]-thiazole-4-carboxylic acid] it was 0.3 nM.
Consider `N#Cc1cscc1-c1ccc(O)c(Cc2sc(N3CCc4cccc(C(=O)Nc5nc6ccccc6s5)c4C3)nc2C(=O)O)c1` [Example 60, 2-[8-(Benzothiazol-2-ylcarbamoyl)-3,4-dihydro-1H-isoquinolin-2-yl]-5-[5-(4-cyano-thiophen-3-yl)-2-hydroxy-benzyl]-thiazole-4-carboxylic acid], for which the Ki was determined as 176 nM.

Still in this assay, the particulars now being: with 1% human serum (HS).
On to `CN(C)CC#Cc1ccc(OCCCc2sc(N3CCc4cccc(C(=O)Nc5nc6ccccc6s5)c4C3)nc2C(=O)O)cn1` [Example 57, 2-(8-(benzo[d]thiazol-2-ylcarbamoyl)-3,4-dihydroisoquinolin-2(1H)-yl)-5-(3-(6-(3-(dimethylamino)prop-1-ynyl)pyridin-3-yloxy)propyl)thiazole-4-carboxylic acid], for which the Ki came to 0.07 nM.
